PubChem BioAssay AID2060604 (Molecular Pharmacology Branch, DTP, NCI, 2025)

Test system: 379773-124-R-J2-PDC complex spheroids, viability % test/control
Assay: Anticancer human tumor 379773-124-R-J2-PDC patient-derived endometrial carcinoma cell line growth inhibition [CLK]
Conditions: for IC50: curve of first compound; for viability, T/C: stronger effect = lower value
How it was run: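 Multi-cell-type spheroids combined patient-derived tumor cells with HUVEC endothelial cells and human mesenchymal stem cells. Paired agents were dosed in half-log steps down from about clinical Cmax, or from 10 microM where Cmax was unknown.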

[1] = second compound 0.0316 µM, first compound 0.0316 µM
[2] = second compound 0.0316 µM, first compound 0.1 µM
[3] = second compound 0.0316 µM, first compound 0.316 µM
[4] = second compound 0.0316 µM, first compound 1 µM
[5] = second compound 0.1 µM, first compound 0.0316 µM
[6] = second compound 0.1 µM, first compound 0.1 µM
[7] = second compound 0.1 µM, first compound 0.316 µM
[8] = second compound 0.1 µM, first compound 1 µM
[9] = second compound 0.316 µM, first compound 0.0316 µM
[10] = second compound 0.316 µM, first compound 0.1 µM
[11] = second compound 0.316 µM, first compound 0.316 µM
[12] = second compound 0.316 µM, first compound 1 µM
[13] = second compound 1 µM, first compound 0.0316 µM
[14] = second compound 1 µM, first compound 0.1 µM
[15] = second compound 1 µM, first compound 0.316 µM
[16] = second compound 1 µM, first compound 1 µM
[17] = second compound 3.16 µM, first compound 0.0316 µM
[18] = second compound 3.16 µM, first compound 0.1 µM
[19] = second compound 3.16 µM, first compound 0.316 µM
[20] = second compound 3.16 µM, first compound 1 µM
[21] = second compound 10 µM, first compound 0.0316 µM
[22] = second compound 10 µM, first compound 0.1 µM
[23] = second compound 10 µM, first compound 0.316 µM
[24] = second compound 10 µM, first compound 1 µM
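Note: compound exposure lasted seven days before the viability readout.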
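Throughout, for viability, T/C: 100% = DMSO vehicle control wells.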

CC(=O)O[C@H]1C(=O)[C@@]2(C)[C@H]([C@H](OC(=O)c3ccccc3)[C@]3(O)C[C@H](OC(=O)[C@H](O)[C@@H](NC(=O)c4ccccc4)c4ccccc4)C(C)=C1C3(C)C)[C@]1(OC(C)=O)CO[C@@H]1C[C@@H]2O + CNC(=O)c1ccc(Nc2nc(OC3CCCC3)c3c(-c4ccc5nc(C)oc5c4)c[nH]c3n2)c(OC)c1
IC50 (second compound 0.0316 µM): < 31.6 nM | IC50 (second compound 0.1 µM): < 31.6 nM | IC50 (second compound 0.316 µM): < 31.6 nM | IC50 (second compound 1 µM): < 31.6 nM | IC50 (second compound 3.16 µM): < 31.6 nM | IC50 (second compound 10 µM): < 31.6 nM | viability, T/C [1]: 9.1% | viability, T/C [2]: 12.2% | viability, T/C [3]: 13.4% | viability, T/C [4]: 9.72% | viability, T/C (second compound 0.0316 µM, first compound 3.16 µM): 15.4% | viability, T/C (second compound 0.0316 µM, first compound 10 µM): 17.7% | viability, T/C [5]: 24.6% | viability, T/C [6]: 28.4% | viability, T/C [7]: 28.9% | viability, T/C [8]: 34.6% | viability, T/C (second compound 0.1 µM, first compound 3.16 µM): 25% | viability, T/C (second compound 0.1 µM, first compound 10 µM): 33.2% | viability, T/C [9]: 27.6% | viability, T/C [10]: 24.8% | viability, T/C [11]: 33.2% | viability, T/C [12]: 33.3% | viability, T/C (second compound 0.316 µM, first compound 3.16 µM): 32.2% | viability, T/C (second compound 0.316 µM, first compound 10 µM): 27.7% | viability, T/C [13]: 30% | viability, T/C [14]: 28.4% | viability, T/C [15]: 33.6% | viability, T/C [16]: 36% | viability, T/C (second compound 1 µM, first compound 3.16 µM): 29.2% | viability, T/C (second compound 1 µM, first compound 10 µM): 37.7% | viability, T/C [17]: 30% | viability, T/C [18]: 27.3% | viability, T/C [19]: 28.9% | viability, T/C [20]: 25.5% | viability, T/C (second compound 3.16 µM, first compound 3.16 µM): 26.4% | viability, T/C (second compound 3.16 µM, first compound 10 µM): 31.8% | viability, T/C [21]: 29.1% | viability, T/C [22]: 33.5% | viability, T/C [23]: 31.6% | viability, T/C [24]: 35.1% | viability, T/C (second compound 10 µM, first compound 3.16 µM): 30.7% | viability, T/C (second compound 10 µM, first compound 10 µM): 36.1%

CCc1c2c(nc3ccc(O)cc13)-c1cc3c(c(=O)n1C2)COC(=O)[C@]3(O)CC + CNC(=O)c1ccc(Nc2nc(OC3CCCC3)c3c(-c4ccc5nc(C)oc5c4)c[nH]c3n2)c(OC)c1
IC50 (second compound 0.0316 µM): < 3.16 nM | IC50 (second compound 0.1 µM): < 3.16 nM | IC50 (second compound 0.316 µM): < 3.16 nM | IC50 (second compound 1 µM): < 3.16 nM | IC50 (second compound 3.16 µM): < 3.16 nM | IC50 (second compound 10 µM): < 3.16 nM | viability, T/C (second compound 0.0316 µM, first compound 0.00316 µM): 12.8% | viability, T/C (second compound 0.0316 µM, first compound 0.01 µM): 6.83% | viability, T/C [1]: 2.79% | viability, T/C [2]: 1.86% | viability, T/C [3]: 0.94% | viability, T/C [4]: 0.4% | viability, T/C (second compound 0.1 µM, first compound 0.00316 µM): 7.91% | viability, T/C (second compound 0.1 µM, first compound 0.01 µM): 4.87% | viability, T/C [5]: 2.4% | viability, T/C [6]: 1.19% | viability, T/C [7]: 0.65% | viability, T/C [8]: 0.35% | viability, T/C (second compound 0.316 µM, first compound 0.00316 µM): 6.52% | viability, T/C (second compound 0.316 µM, first compound 0.01 µM): 5.08% | viability, T/C [9]: 2.12% | viability, T/C [10]: 1.42% | viability, T/C [11]: 0.6% | viability, T/C [12]: 0.25% | viability, T/C (second compound 1 µM, first compound 0.00316 µM): 5.11% | viability, T/C (second compound 1 µM, first compound 0.01 µM): 4.25% | viability, T/C [13]: 2.43% | viability, T/C [14]: 0.96% | viability, T/C [15]: 0.45% | viability, T/C [16]: 0.37% | viability, T/C (second compound 3.16 µM, first compound 0.00316 µM): 5.35% | viability, T/C (second compound 3.16 µM, first compound 0.01 µM): 4.96% | viability, T/C [17]: 1.98% | viability, T/C [18]: 1.08% | viability, T/C [19]: 0.6% | viability, T/C [20]: 0.2% | viability, T/C (second compound 10 µM, first compound 0.00316 µM): 5.38% | viability, T/C (second compound 10 µM, first compound 0.01 µM): 4.45% | viability, T/C [21]: 2.55% | viability, T/C [22]: 1.19% | viability, T/C [23]: 0.79% | viability, T/C [24]: 0.39%
